Values of other authors as cited in publication PMC11173647, “Anti-Inflammatory Activity of Pyrazolo[1,5-a]quinazolines” (Molecules, 2024).

Key:
Design in all cases: method as in PMID 32696514
cyclooxygenase 2 (COX-2) = settings: cited from earlier work
5-lipoxygenase (5-LOX) = settings: cited from earlier work
[1] = tested on: carrageenan-induced paw edema; settings: carrageenan-induced paw edema model, 10 mg/kg; cited from earlier work
[2] = tested on: gastric ulcerogenic effects; settings: in vivo; cited from earlier work

COc1cc(/C=c2/c(=O)[nH]n3c(=O)c4ccccc4nc23)cc(OC)c1OC [A]
selectivity toward COX-2 versus COX-1 (cyclooxygenase 2 (COX-2); COX-2 versus COX-1): about 14 fold | IC50 (cyclooxygenase 2 (COX-2)): 47 nM | IC50 (5-lipoxygenase (5-LOX)): 2300 nM | reduction of edema [1]: 39% | gastric ulcerogenic effects [2]: did not exhibit gastric ulcerogenic effects
